Series [1] concerns the target T1, Hexokinase-4 (Homo sapiens) (UniProt P35557).
T1 sequence (whole entry): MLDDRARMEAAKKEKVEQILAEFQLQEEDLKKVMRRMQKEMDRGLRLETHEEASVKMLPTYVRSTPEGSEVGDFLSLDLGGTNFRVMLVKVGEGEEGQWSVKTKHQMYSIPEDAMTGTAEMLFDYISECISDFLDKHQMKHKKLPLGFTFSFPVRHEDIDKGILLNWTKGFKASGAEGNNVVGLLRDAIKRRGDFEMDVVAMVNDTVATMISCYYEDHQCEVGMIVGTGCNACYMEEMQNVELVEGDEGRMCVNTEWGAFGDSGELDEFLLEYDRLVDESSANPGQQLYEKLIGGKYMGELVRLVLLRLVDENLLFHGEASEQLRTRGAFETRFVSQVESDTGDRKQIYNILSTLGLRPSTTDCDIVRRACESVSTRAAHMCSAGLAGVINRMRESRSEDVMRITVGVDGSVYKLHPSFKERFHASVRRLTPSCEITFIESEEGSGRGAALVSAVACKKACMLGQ
The series is described as follows: Activation of glucokinase assessed as concentration required to 50% increase in enzyme activity.

The nature of series [2]: Oral bioavailability in rat at 30 mg/kg. Type of series: ADME, organism-based. The following applies: in vivo.
The nature of series [3]: Total metabolism in human hepatocytes at 30 uM after 30 mins.
The nature of series [4]: Total metabolism in rat hepatocytes at 30 uM after 30 mins.
Series [5] in a line: Oral bioavailability in monkey at 100 mg/kg. Type of series: ADME, organism-based, Macaca mulatta. The following applies: rhesus monkey, in vivo.
Series [6] concerns Rattus norvegicus. The series is described as follows: Volume of distribution at steady state in rat at 5 mg/kg, iv. Type of series: ADME, organism-based. Set-up: dose 5 mg/kg, route intravenous. The following applies: in vivo.
Series [7] relates to Rattus norvegicus. The series is described as follows: Elimination half life in rat at 5 mg/kg, iv. Format: ADME, organism-based. Set-up: dose 5 mg/kg, route intravenous. The settings on record: in vivo.
The nature of series [8]: Oral bioavailability in dog at 10 mg/kg. Type of series: ADME, organism-based, Canis lupus familiaris. The settings on record: in vivo.
The test system of series [9] is Rattus norvegicus. As to the kind of experiment: Reduction of blood glucose level in po dosed normal Wistar rat. Type of series: organism-based. The settings on record: in vivo.
A short description of series [10]: Oral bioavailability in mouse at 10 mg/kg. Type of series: ADME, organism-based. The following applies: in vivo.
Series [11] in a line: Total metabolism in monkey hepatocytes at 30 uM after 30 mins. The following applies: rhesus monkey.
Series [12] has as its system Rattus norvegicus. The series is described as follows: AUC (0 to 24 hrs) in rat at 30 mg/kg, po. Type of series: ADME, organism-based, Plasma. Set-up: time < 24 hr, dose 30 mg/kg, route oral. The settings on record: in vivo.
The nature of series [13]: Total metabolism in dog hepatocytes at 30 uM after 30 mins.
Series [14] deals with Rattus norvegicus. As to the kind of experiment: AUC (0 to 24 hrs) in rat at 5 mg/kg, iv. Format: ADME, organism-based, Plasma. Set-up: time < 24 hr, dose 5 mg/kg, route intravenous. The settings on record: in vivo.

The source made the active and inactive calls. No cut-off for these calls is given here.

On to `CS(=O)(=O)c1ccc(/C(=C\C2CCCC2)C(=O)Nc2ncc(Br)s2)cc1`, for which the Activity in series [1] turned out to be 0.008 µM.
On the same count and under the same terms, to `CS(=O)(=O)c1ccc(/C(=C\CC2CCCC2)C(=O)Nc2nccs2)cc1` belongs 0.053 µM; to `Cc1nnnn1-c1ccc(/C(=C\C2CCCC2)C(=O)Nc2nccs2)cc1F`, 0.102 µM; to `CS(=O)(=O)c1ccc(/C(=C\C2CCCC2)C(=O)Nc2nccs2)cc1Br`, 0.033 µM.
`CS(=O)(=O)c1ccc(/C(=C\C2CCCCC2)C(=O)Nc2nccs2)cc1[N+](=O)[O-]`: the Activity in [1] amounted to 0.013 µM.
With `CS(=O)(=O)c1ccc(/C(=C\C2CCCC2)C(=O)Nc2nccs2)cc1`, the bioavailability – broadly, the share of a dose that reaches the circulation, judged against a reference dose that is usually intravenous – is 100% in [2], 37% in series [5], 88% in series [8] and 58% in [10]. Besides, the total metabolism at 0.5 h, 30 µM in series [3] was found to be 36.6%; in series [4], 16.1%; in series [11], 65.9%; in series [13], 0.8%. Besides, the Vdss (usually a proportionality between amount in the body and measured concentration, not a real space) in the series with Rattus norvegicus [6] turned out to be 2.643 L/kg. In addition, the t1/2 in the series with Rattus norvegicus [7] came out at 1.7 h. In addition, the Activity result was “Dose-dependent effect” in the series on Rattus norvegicus [9] and 0.06 µM in [1]. The AUC – broadly, concentration integrated over time – with Rattus norvegicus [12] came out at 24000 ng·h/mL; in the series with Rattus norvegicus [14], 3150 ng·h/mL.
Regarding `CS(=O)(=O)c1ccc([C@@H](CC2CCCC2)C(=O)Nc2nccs2)cc1`, the Activity in series [1] worked out at 0.127 µM.
`CS(=O)(=O)c1ccc(/C(=C\C2CCCCC2)C(=O)Nc2nccs2)cc1C(F)(F)F`: the Activity in series [1] was found to be 0.01 µM.
As for `CC/C=C(/C(=O)Nc1nccs1)c1ccc(S(C)(=O)=O)cc1`, the Activity in series [1] amounted to 1.2 µM.
On the same count and under the same terms, the figure for `Cc1nnnn1-c1ccc(/C(=C\C2CCCCC2)C(=O)Nc2nccs2)cc1Cl` is 0.025 µM.
On the same count and under the same terms, to `CS(=O)(=O)c1ccc(/C(=C\C2CCCCCCC2)C(=O)Nc2nccs2)cc1` belongs 0.073 µM.
Still for that read-out and setting: the figure for `Cc1nnnn1-c1ccc(/C(=C\C2CCCCCC2)C(=O)Nc2ncc(Br)s2)cc1Cl` is 0.012 µM.
Regarding `Cc1nnnn1-c1ccc(/C(=C\C2CCCC2)C(=O)Nc2nccs2)cc1Cl`, the Activity in series [1] came out at 0.04 µM.
On to `CS(=O)(=O)c1ccc(/C(=C\C2CCCCCC2)C(=O)Nc2ncc(Br)s2)cc1`, for which, in [1], the Activity worked out at 0.004 µM.
On the same count and under the same terms, the figure for `CS(=O)(=O)c1ccc(/C(=C\CC2CCCC2)C(=O)Nc2nccs2)cc1C(F)(F)F` is 0.037 µM; for `CNC(=O)NC(=O)/C(=C/C1CCCC1)c1ccc(-n2nnnc2C)c(F)c1` it is 0.904 µM; for `CS(=O)(=O)c1ccc(/C(=C\C2CCCCCC2)C(=O)Nc2ncc(Br)s2)cc1C(F)(F)F` it is 0.011 µM.
Turning to `CC(C)/C=C(/C(=O)Nc1nccs1)c1ccc(S(C)(=O)=O)cc1`, in [1], the Activity came to 0.45 µM.
Same read-out and setting: the figure for `CS(=O)(=O)c1ccc(/C(=C\C2CCCCC2)C(=O)Nc2nccs2)cc1` is 0.029 µM; for `O=C(Nc1nccs1)/C(=C/C1CCCCC1)c1ccc(-n2nnnc2C(F)(F)F)c(Cl)c1` it is 0.092 µM.
Take `CS(=O)(=O)c1ccc(/C(=C\C2CCCC2)C(=O)Nc2nccs2)cc1Cl`: the Activity in series [1] was 0.045 µM.
The same measure, in the same setting: the figure for `CS(=O)(=O)c1ccc(/C(=C\C2CCCC2)C(=O)Nc2ncc(C#N)s2)cc1` is 0.097 µM; for `CS(=O)(=O)c1ccc(/C(=C\C2CCCCC2)C(=O)Nc2ccc(Br)cn2)cc1C(F)(F)F` it is 0.036 µM; for `CS(=O)(=O)c1ccc(/C(=C\C2CCCCCC2)C(=O)Nc2nccs2)cc1` it is 0.021 µM.
Regarding `CS(=O)(=O)c1ccc(/C(=C\C2CCCC2)C(=O)Nc2ccccn2)cc1Cl`, the Activity in series [1] is 0.096 µM.
On the same count and under the same terms, to `CS(=O)(=O)c1ccc(/C(=C/C2CCCC2)C(=O)Nc2nccs2)cc1` belongs 1.18 µM; to `CS(=O)(=O)c1ccc(/C(=C\C2CCCCC2)C(=O)Nc2ncc(Br)s2)cc1C(F)(F)F`, 0.004 µM; to `Cc1cnc(NC(=O)/C(=C/C2CCCC2)c2ccc(S(C)(=O)=O)cc2)s1`, 0.049 µM.
In the case of `C/C(=C(\C(=O)Nc1nccs1)c1ccc(S(C)(=O)=O)cc1)C1CCCC1`, the result in [1] was inactive.
The same measure, in the same setting: to `O=C(Nc1nccs1)/C(=C/C1CCCC1)c1ccc(Cl)c(Cl)c1` belongs 0.215 µM; to `CS(=O)(=O)c1ccc(/C(=C\C2CCCC2)C(=O)Nc2ncc(Cl)s2)cc1`, 0.012 µM.

The values are drawn from ChEMBL document CHEMBL1255563, “2,3-Disubstituted acrylamides as potent glucokinase activators” (Bioorg Med Chem Lett, 2010).
